# Measured values taken from ChEMBL document CHEMBL1131286, “Design and synthesis of m1-selective muscarinic agonists: (R)-(-)-(Z)-1-Azabicyclo[2.2.1]heptan-3-one, O-(3-(3'-methoxyphenyl)-2-propynyl)oxime maleate (CI-1017), a functionally m1-selective muscarinic agonist” (J Med Chem, 1998).
# The source made the active and inactive calls. No cut-off for these calls is given here.
# Experiments:
# [1] = target: T1, Muscarinic acetylcholine receptor M1 (Homo sapiens, UniProt P11229); assay: biochemical; format: cell-based, CHO
# T1 sequence (P11229 whole entry): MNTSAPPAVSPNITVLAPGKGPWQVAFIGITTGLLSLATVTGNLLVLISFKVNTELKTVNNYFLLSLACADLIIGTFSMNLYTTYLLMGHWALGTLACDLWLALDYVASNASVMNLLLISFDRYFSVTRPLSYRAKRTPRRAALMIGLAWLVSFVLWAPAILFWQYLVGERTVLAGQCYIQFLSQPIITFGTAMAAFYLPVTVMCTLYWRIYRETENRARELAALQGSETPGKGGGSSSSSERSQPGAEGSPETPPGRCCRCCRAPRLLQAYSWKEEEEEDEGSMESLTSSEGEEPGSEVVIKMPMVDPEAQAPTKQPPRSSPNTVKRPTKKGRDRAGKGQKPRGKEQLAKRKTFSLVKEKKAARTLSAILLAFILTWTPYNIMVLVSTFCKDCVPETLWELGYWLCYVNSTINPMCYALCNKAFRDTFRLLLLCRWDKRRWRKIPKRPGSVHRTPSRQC
# Description: Binding affinity of [3H]-QNB to CHO cells expressing human Muscarinic acetylcholine receptor M1
# [2] = target: Muscarinic acetylcholine receptor; assay: Muscarinic acetylcholine receptor binding assay was conducted using [3H]quinuclidinyl benzilate (QNB) to label antagonist sites in membrane preparations from rat neocortex
# [3] = target: Muscarinic acetylcholine receptor; assay: Muscarinic acetylcholine receptor binding assay was conducted using [3H]cis-methyldioxolane (CMD) to label agonist sites in membrane preparations from rat neocortex
# [4] = target: T2, Muscarinic acetylcholine receptor M2 (Homo sapiens, UniProt P08172); assay: Binding affinity of [3H]QNB to CHO cells expressing human Muscarinic acetylcholine receptor M2; format: cell-based
# T2 sequence (P08172 whole entry): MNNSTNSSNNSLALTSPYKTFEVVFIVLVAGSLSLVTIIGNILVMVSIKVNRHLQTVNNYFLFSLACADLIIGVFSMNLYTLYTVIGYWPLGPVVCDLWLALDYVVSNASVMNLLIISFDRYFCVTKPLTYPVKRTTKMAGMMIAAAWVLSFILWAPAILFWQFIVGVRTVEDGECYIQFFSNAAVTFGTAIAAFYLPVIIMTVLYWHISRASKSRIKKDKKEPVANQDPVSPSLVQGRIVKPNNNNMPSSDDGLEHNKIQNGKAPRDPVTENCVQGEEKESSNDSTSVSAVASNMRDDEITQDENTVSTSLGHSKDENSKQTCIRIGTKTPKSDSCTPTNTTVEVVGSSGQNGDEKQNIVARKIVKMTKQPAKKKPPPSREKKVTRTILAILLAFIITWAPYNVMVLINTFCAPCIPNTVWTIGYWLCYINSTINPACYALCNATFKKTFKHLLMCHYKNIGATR
# [5] = target: Muscarinic acetylcholine receptor (Rattus norvegicus) (UniProt P08482+P08483+P08485+P08911+P10980); assay: Ratio of QNB binding to CMD binding was evaluated; format: protein assay
# [6] = target: T3, Muscarinic acetylcholine receptor M1 (Homo sapiens) (UniProt P11229); assay: Stimulation of inositol phosphate(PI) accumulation in CHO cells expressing Muscarinic acetylcholine receptor M1 as maximal response at 100 uM relative to carbachol; format: functional, cell-based
# T3 sequence (whole entry): T1 sequence (P11229 whole entry)
# [7] = target: Muscarinic acetylcholine receptor M3 (Homo sapiens) (UniProt P20309); assay: Inositol phosphate(PI) accumulation in CHO cells expressing Muscarinic acetylcholine receptor M3 as maximal response at 100 uM relative to carbachol; format: functional, cell-based
# Chain of Muscarinic acetylcholine receptor M3 (Homo sapiens) (P20309 whole entry, looked up): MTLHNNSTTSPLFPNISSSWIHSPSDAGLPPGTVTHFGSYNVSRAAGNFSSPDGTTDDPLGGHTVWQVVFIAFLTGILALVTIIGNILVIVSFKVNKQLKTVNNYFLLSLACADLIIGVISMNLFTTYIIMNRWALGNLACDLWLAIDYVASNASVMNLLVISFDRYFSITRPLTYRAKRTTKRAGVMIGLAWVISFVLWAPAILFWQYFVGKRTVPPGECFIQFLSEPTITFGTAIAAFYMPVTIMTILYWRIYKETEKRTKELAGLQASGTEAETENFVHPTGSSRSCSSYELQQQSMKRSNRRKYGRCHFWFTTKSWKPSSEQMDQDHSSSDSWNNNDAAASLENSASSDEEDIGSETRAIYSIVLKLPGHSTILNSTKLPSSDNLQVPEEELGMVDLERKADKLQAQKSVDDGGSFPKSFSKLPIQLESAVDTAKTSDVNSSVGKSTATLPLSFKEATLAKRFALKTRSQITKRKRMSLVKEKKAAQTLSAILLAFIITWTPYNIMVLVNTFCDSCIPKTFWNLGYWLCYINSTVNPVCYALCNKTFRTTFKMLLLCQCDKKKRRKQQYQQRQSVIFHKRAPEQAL
# [8] = target: T4, Muscarinic acetylcholine receptor M5 (Homo sapiens) (UniProt P08912); assay: Inositol phosphate(PI) accumulation in CHO cells expressing Muscarinic acetylcholine receptor M5 as maximal response at 100 uM relative to carbachol; format: functional, cell-based
# T4 sequence (whole entry): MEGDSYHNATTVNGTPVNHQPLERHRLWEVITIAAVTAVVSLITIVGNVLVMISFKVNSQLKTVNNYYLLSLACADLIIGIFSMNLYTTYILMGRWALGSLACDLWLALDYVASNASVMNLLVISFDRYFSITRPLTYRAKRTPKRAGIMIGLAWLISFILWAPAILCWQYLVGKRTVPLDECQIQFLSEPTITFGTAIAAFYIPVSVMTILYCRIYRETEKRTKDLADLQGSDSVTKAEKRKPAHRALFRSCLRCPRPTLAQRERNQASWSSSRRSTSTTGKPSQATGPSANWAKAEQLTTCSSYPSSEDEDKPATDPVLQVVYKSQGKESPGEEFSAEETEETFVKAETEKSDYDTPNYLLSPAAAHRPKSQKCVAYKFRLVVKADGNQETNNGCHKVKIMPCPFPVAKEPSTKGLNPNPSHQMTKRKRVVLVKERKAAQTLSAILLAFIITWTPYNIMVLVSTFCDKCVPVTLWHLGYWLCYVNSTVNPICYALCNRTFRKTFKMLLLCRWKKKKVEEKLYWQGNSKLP
# [9] = target: T4, Muscarinic acetylcholine receptor M5 (Homo sapiens); assay: Stimulations of inositol phosphate(PI) ccumulation in transfected CHO cells in Muscarinic acetylcholine receptor M5 values are the maximal response obtained from the compound tested at 100 uM normalized to the effect of carbachol.; format: functional, cell-based
# [10] = target: T5, Muscarinic acetylcholine receptor M4 (Homo sapiens) (UniProt P08173); conditions: NIH3T3
# T5 sequence (whole entry): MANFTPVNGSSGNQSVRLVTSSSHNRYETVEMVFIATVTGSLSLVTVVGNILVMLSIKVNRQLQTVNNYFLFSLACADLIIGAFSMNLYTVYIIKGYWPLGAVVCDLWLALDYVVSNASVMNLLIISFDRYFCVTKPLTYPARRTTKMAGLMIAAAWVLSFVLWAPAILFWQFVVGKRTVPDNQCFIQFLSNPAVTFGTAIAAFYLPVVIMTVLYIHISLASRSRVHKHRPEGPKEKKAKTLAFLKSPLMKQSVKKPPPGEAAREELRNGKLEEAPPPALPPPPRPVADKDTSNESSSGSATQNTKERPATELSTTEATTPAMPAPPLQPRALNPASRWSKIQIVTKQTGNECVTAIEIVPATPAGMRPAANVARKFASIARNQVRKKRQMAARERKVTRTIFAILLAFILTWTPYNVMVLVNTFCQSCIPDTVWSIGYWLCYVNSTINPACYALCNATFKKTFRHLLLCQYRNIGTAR
# [11] = target: T4, Muscarinic acetylcholine receptor M5 (Homo sapiens); conditions: CHO; 100 uM
# [12] = target: T4, Muscarinic acetylcholine receptor M5 (Homo sapiens); assay: Amplification of transfected NIH3T3 cells was measured in Muscarinic acetylcholine receptor M5 required to produce half maximal effect; format: functional, cell-based
# [13] = target: T5, Muscarinic acetylcholine receptor M4 (Homo sapiens); assay: Reversal of forskolin-stimulated accumulation of […] in transfected CHO cells, against Muscarinic acetylcholine receptor M4; format: functional, cell-based; conditions: concentration not given here
# [14] = target: T6, Muscarinic acetylcholine receptor M2 (Homo sapiens) (UniProt P08172); conditions: CHO
# T6 sequence (whole entry): T2 sequence (P08172 whole entry)
# Description: Binding affinity expressed in IC50 labelled by [3H]QNB in CHO cells expressing human Muscarinic acetylcholine receptor M2
# [15] = target: T4, Muscarinic acetylcholine receptor M5 (Homo sapiens); assay: Stimulations of inositol phosphate(PI) accumulation in transfected CHO cells in Muscarinic acetylcholine receptor M5 values are the maximal response obtained from the compound tested at 100 uM normalized to the effect of carbachol.; format: functional, cell-based
# [16] = target: T5, Muscarinic acetylcholine receptor M4 (Homo sapiens); assay: Maximal response obtained for each drug normalized to effect of carbachol in Muscarinic acetylcholine receptor M4; format: functional
# [17] = target: Muscarinic acetylcholine receptor M3 (Homo sapiens) (UniProt P20309); assay: Stimulations of inositol phosphate(PI) accumulation in transfected CHO cells in Muscarinic acetylcholine receptor M3 values are the maximal response obtained from the compound tested at 100 uM normalized to the effect of carbachol.; format: functional, cell-based
# [18] = target: T3, Muscarinic acetylcholine receptor M1 (Homo sapiens); conditions: CHO
# [19] = target: T4, Muscarinic acetylcholine receptor M5 (Homo sapiens); assay: Maximal response obtained for each drug normalized to effect of carbachol in Muscarinic acetylcholine receptor M5; format: functional
# [20] = target: T3, Muscarinic acetylcholine receptor M1 (Homo sapiens); assay: Maximal response obtained for each drug normalized to effect of carbachol in Muscarinic acetylcholine receptor M1; format: functional
# [21] = target: T6, Muscarinic acetylcholine receptor M2 (Homo sapiens); assay: Maximal response obtained for each drug normalized to effect of carbachol in Muscarinic acetylcholine receptor M2; format: functional
# [22] = target: Muscarinic acetylcholine receptor M3 (Homo sapiens) (UniProt P20309); assay: Maximal response obtained for each drug normalized to effect of carbachol in Muscarinic acetylcholine receptor M3; format: functional
# [23] = target: T6, Muscarinic acetylcholine receptor M2 (Homo sapiens); assay: Amplification of transfected NIH3T3 cells was measured in Muscarinic acetylcholine receptor M2 required to produce half maximal effect; format: functional, cell-based
# [24] = target: Muscarinic acetylcholine receptor M3 (Homo sapiens) (UniProt P20309); conditions: NIH3T3
# Description: Amplification of transfected NIH3T3 cells was measured in Muscarinic acetylcholine receptor M3 required to produce half maximal effect
# [25] = target: T3, Muscarinic acetylcholine receptor M1 (Homo sapiens); conditions: NIH3T3
# [26] = target: T6, Muscarinic acetylcholine receptor M2 (Homo sapiens); assay: Reversal of forskolin-stimulated accumulation of […] in transfected CHO cells, against Muscarinic acetylcholine receptor M2; Not active up to 1 mM; format: functional, cell-based
# [27] = target: T5, Muscarinic acetylcholine receptor M4 (Homo sapiens); assay: Amplification of transfected NIH3T3 cells was measured in Muscarinic acetylcholine receptor M4 required to produce half maximal effect; format: functional, cell-based
SMILES,IC50 [1] [µM],IC50 [4] [µM],CCh [6] [%],CCh [8] [%],IC50 [2] [µM],IC50 [3] [µM],Ratio [5],further results
C#CCC#CCO/N=C1\CN2CCC1C2 (centres undefined),8.83,8.07,,,8.834,0.022,402,
C=CCO/N=C1\CN2CCC1C2 (centres undefined),4.05,10.8,,,4.77,0.052,91.7,
C#C/C=C/CO/N=C1\CN2CCC1C2 (centres undefined),0.216,0.519,,,13.8,0.0347,398,
C#C/C(C)=C\CO/N=C1\CN2CCC1C2 (centres undefined),1.58,1.9,,,0.806,0.00102,790,
C[N+](C)(C)CCOC(N)=O,,,,,,,,ED50 [10]: 0.1 µM; ED50 [11]: 2.7 µM; ED50 [12]: 1.4 µM; inhibition [13]: 6.3%; ED50 [14]: 0.27 µM; Stimulation [15]: 100%
C(#Cc1ccsc1)CO/N=C1\CN2CCC1C2 (centres undefined),4.84,15.2,54,13,2.69,0.0165,163,CCh [7]: 19%
Cc1ccc(C#CCO/N=C2\CN3CCC2C3)cc1 (centres undefined),14.1,38.6,,,,,124,
CO/N=C1\CN2CCC1C2 (centres undefined),26.9,16.8,,,24.2,0.0181,1340,
C(#Cc1cccs1)CO/N=C1\CN2CCC1C2 (centres undefined),1.62,8.9,86,,2.33,0.0135,173,
C#CCO/N=C1\CN2CCC1C2 (centres undefined),4.89,6.03,95,42,4.35,0.0035,1240,
C#C/C(C)=C/CO/N=C1\CN2CCC1C2 (centres undefined),2.59,6.01,,,2.06,0.00429,480,
Fc1ccc(C#CCO/N=C2\CN3CCC2C3)cc1 (centres undefined),5.46,27.2,57,13,,,204,CCh [7]: 10%
C#CCC#CCC#CCO/N=C1\CN2CCC1C2 (centres undefined),,,,,0.958,0.00804,119,
COc1cccc(C#CCO/N=C2\CN3CC[C@H]2C3)c1,,,,,,,,CCh [16]: 65%; Stimulation [17]: 5.2%; ED50 [18]: 3.7 µM; CCh [19]: 60%; CCh [20]: 51%; CCh [21]: 33%; CCh [22]: 57%; ED50 [12]: 2.59 µM; ED50 [23]: 1.53 µM; ED50 [24]: 4.57 µM; ED50 [25]: 1.6 µM; Stimulation [15]: 1.9%
Clc1ccccc1C#CCO/N=C1\CN2CCC1C2 (centres undefined),1.12,4.01,32,4,,,107,CCh [7]: 6%
COc1cccc(C#CCO/N=C2\CN3CC[C@@H]2C3)c1,,,,,,,,CCh [16]: 72%; Stimulation [17]: 10.4%; ED50 [18]: 1 µM; CCh [19]: 104%; ED50 [26]: inactive; CCh [20]: 41%; CCh [21]: 92%; CCh [22]: 87%; ED50 [27]: 0.051 µM; ED50 [12]: 0.868 µM; ED50 [23]: 1.28 µM; ED50 [24]: 0.865 µM; ED50 [25]: 0.042 µM; inhibition [13]: 1.6%; Stimulation [15]: 12.3%

# Further lines, with some results ahead:
IC50 [1] [µM],IC50 [4] [µM],CCh [6] [%],CCh [8] [%],SMILES,IC50 [2] [µM],IC50 [3] [µM],Ratio [5],further results
4.03,20.8,45,6,Fc1ccccc1C#CCO/N=C1\CN2CCC1C2 (centres undefined),,,160,CCh [7]: 2%
10.6,84.4,89,,COc1ccc(C#CCO/N=C2\CN3CCC2C3)cc1 (centres undefined),,,119,CCh [9]: 3%; CCh [7]: 2%
1.09,7.93,,,C/C(C#Cc1ccccc1)=C\CO/N=C1\CN2CCC1C2 (centres undefined),,,7.93,
4.01,24.7,48,0,Clc1ccc(C#CCO/N=C2\CN3CCC2C3)cc1 (centres undefined),,,119,
15.1,46.6,,,O=[N+]([O-])c1cccc(C#CCO/N=C2\CN3CCC2C3)c1 (centres undefined),,,227,
9.85,47.9,54,9,Fc1cccc(C#CCO/N=C2\CN3CCC2C3)c1 (centres undefined),,,132,CCh [7]: 12%
16.6,69.3,,,COc1ccccc1C#CCO/N=C1\CN2CCC1C2 (centres undefined),,,80.7,
